The numbers were not newly measured in paper PMC10698726 (Molecular Pharmaceutics, 2023), which cites them from elsewhere.

One data set relates to OCT1. More on the design: method as in PMID 34884800. Particulars: cited from earlier work.
The next data set has as its system OCT2. More on the design: method as in PMID 34884800. Particulars: cited from earlier work.

Consider `CCCC(C(=O)c1ccccc1)N1CCCC1` (stereo not drawn) [α-pyrrolidinovalerophenone], for which the “difference in the inhibition of OCT1 between enantiomers” value with OCT1 is reported as “twofold difference”. Also, the “difference in the inhibition of OCT2 between enantiomers” value in the data set with OCT2 is recorded as “no difference”.
